Results published in patent US6951868B2, “Azabicyclic-phenyl-fused-heterocyclic compounds for treatment of disease” (Pfizer Inc., priority 2001, dated 2005).

Biological target: T1, chimeric α7-5HT3 ion channel (UniProt P23979+P36544, M226I/T225I)
T1 construct: pore forming region of the mouse 5HT3 receptor (fusion partner, same polypeptide); expressed in transfected cells
Assay: Cell-based FLIPR assay measuring the EC50 of α7 nAChR agonists on the chimeric α7-5HT3 receptor
Set-up: species or system human/mouse
Settings: SH-EP1 cells expressing chimeric α7-5HT3 ion channel; increase in intracellular calcium (Calcium Green fluorescence, FLIPR)
Description: Cell-based Assay for Measuring the EC50 of α7 nAChR Agonists
Construction and Expression of the α7-5HT3 Receptor:
The cDNA encoding the N-terminal 201 amino acids from the human α7 nAChR that contain the ligand binding domain of the ion channel was fused to the cDNA encoding the pore forming region of the mouse 5HT3 receptor as described by Eisele J L, et al., Chimaeric nicotinic-serotonergic receptor combines distinct ligand binding and channel specificities, Nature (1993), December 2;366(6454):479-83, and modified by Groppi, et al., WO 00/73431. The chimeric α7-5HT3 ion channel was inserted into pGS175 and pGS179 which contain the resistance genes for G-418 and hygromycin B, respectively. […]
To assay the activity of the α7-5HT3 ion channel, cells expressing the channel were plated into each well of either a 96 or 384 well dish (Corning #3614) and grown to confluence prior to assay. […] The activity of compounds on the chimeric α7-5HT3 ion channel was analyzed on FLIPR. […] Fluorescent emission was measured above 525 nanometers with an appropriate F-stop to maintain a maximal signal to noise ratio. Agonist activity of each compound was measured by directly adding the compound to cells expressing the chimeric α7-5HT3 ion channel and measuring the resulting increase in intracellular calcium that is caused by the agonist-induced activation of the chimeric ion channel. […]

T1 sequence (P36544+P23979 fused P36544:T225I/P36544:M226I): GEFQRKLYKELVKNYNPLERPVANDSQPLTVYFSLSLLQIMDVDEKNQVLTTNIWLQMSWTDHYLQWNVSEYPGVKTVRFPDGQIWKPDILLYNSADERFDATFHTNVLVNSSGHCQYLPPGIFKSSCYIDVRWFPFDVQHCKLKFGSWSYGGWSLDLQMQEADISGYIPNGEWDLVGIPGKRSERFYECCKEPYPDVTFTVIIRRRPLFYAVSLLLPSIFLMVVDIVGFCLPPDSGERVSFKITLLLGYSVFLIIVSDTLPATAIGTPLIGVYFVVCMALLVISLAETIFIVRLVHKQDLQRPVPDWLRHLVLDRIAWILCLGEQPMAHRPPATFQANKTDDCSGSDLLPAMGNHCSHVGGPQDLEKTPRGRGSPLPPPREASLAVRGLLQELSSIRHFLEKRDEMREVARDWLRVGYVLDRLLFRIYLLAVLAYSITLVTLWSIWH

| SMILES | Agonist activity (result in words) |
| --- | --- |
| Cl.O=C(N[C@H]1CN2CCC1CC2)c1ccc2c(c1)O[C@H](COc1ccccc1)CO2 [Example 12, (3R)-N-[(3R)-1-Azabicyclo[2.2.2]oct-3-yl]-3-(phenoxymethyl)-2,3-dihydro-1,4-benzodioxine-6-carboxamide Hydrochloride] | inactive |
| O=C(N[C@H]1CN2CCC1CC2)c1ccc2c(c1)OCC(COCc1ccccc1)O2.O=C(O)/C=C/C(=O)O (single isomer, unassigned) [Example 6(b)] | inactive |
